# Values quoted from earlier work as cited in patent US20090192135A1, “Human Niemann Pick C1-Like 1 Gene (NPC1L1) Polymorphisms and Methods of Use Thereof” (SCHERING CORPORATION, priority 2005, published 2009).
# Molecular target: T1, NPC1L1 (Homo sapiens, UniProt Q9UHC9)
# T1 sequence (Q9UHC9 22-1359): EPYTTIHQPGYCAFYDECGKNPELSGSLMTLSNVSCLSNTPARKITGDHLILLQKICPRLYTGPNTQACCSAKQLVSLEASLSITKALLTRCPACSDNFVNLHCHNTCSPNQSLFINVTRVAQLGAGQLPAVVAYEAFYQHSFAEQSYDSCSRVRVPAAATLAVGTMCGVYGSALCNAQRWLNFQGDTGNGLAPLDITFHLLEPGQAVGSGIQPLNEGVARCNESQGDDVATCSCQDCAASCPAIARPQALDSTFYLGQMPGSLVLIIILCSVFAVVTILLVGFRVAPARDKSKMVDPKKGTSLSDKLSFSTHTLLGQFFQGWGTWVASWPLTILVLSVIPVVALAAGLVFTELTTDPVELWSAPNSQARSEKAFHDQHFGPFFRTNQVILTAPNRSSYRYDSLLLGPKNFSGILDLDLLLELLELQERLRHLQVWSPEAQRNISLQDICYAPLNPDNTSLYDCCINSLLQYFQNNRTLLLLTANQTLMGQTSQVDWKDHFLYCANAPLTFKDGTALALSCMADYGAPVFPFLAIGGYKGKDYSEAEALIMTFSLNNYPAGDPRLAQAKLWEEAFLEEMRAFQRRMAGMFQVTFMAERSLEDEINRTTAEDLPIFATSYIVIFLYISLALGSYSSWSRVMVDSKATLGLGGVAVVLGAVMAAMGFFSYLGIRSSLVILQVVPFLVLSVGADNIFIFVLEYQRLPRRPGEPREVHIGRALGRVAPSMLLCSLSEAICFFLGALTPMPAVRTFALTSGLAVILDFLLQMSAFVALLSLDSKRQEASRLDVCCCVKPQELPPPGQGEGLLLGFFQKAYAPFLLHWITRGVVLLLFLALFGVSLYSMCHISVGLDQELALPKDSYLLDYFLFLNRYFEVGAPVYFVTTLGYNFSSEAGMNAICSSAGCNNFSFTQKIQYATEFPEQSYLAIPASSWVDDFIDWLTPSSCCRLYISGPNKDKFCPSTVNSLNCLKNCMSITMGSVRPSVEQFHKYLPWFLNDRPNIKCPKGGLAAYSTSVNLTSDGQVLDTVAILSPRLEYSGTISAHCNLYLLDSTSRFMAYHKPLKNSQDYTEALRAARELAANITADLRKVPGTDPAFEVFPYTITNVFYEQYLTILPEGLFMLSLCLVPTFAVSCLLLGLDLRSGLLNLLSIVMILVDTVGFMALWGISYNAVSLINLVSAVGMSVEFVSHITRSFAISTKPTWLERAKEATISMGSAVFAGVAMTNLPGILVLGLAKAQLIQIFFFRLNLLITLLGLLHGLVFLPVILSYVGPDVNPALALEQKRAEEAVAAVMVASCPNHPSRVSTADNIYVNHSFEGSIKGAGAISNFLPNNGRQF
# Settings: co-administered with a statin; cited from earlier work
smiles,measurement,value
"O=C1[C@H](CC[C@H](O)c2ccc(F)cc2)[C@@H](c2ccc(O)cc2)N1c1ccc(F)cc1 [ezetimibe, 1-(4-fluorophenyl)-3(R)-[3-(4-fluorophenyl)-3(S)-hydroxypropyl]-4(S)-(4-hydroxyphenyl)-2-azetidinone]",incremental LDL-C reduction attributable to ezetimibe,14-15%
